Measured values from PubChem BioAssay AID2060627 (Molecular Pharmacology Branch, DTP, NCI, 2025).
pIC50: −log10 of the molar value. Where “and” joins values, the source holds several entries; their conditions need not be identical. Identical values can stand only once.

System: 156681-154-R-J1-PDC complex spheroid viability
Test: Anticancer human tumor 156681-154-R-J1-PDC patient-derived melanoma cell line growth inhibition [CLK]
Details: for viability, T/C: stronger effect = lower value
In short: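 Patient-derived tumor cells grown as complex spheroids with HUVEC endothelial cells and mesenchymal stem cells, treated with drug combinations. Concentrations descend in half-log steps from near clinical Cmax, or from 10 microM if Cmax unknown.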

[1] = curve of first compound, second compound 0.0316 µM
[2] = curve of first compound, second compound 0.1 µM
[3] = curve of first compound, second compound 0.316 µM
[4] = curve of first compound, second compound 1 µM
[5] = curve of first compound, second compound 3.16 µM
[6] = curve of first compound, second compound 10 µM
[7] = second compound 0.0316 µM, first compound 0.0316 µM
[8] = second compound 0.0316 µM, first compound 0.1 µM
[9] = second compound 0.0316 µM, first compound 0.316 µM
[10] = second compound 0.0316 µM, first compound 1 µM
[11] = second compound 0.1 µM, first compound 0.0316 µM
[12] = second compound 0.1 µM, first compound 0.1 µM
[13] = second compound 0.1 µM, first compound 0.316 µM
[14] = second compound 0.1 µM, first compound 1 µM
[15] = second compound 0.316 µM, first compound 0.0316 µM
[16] = second compound 0.316 µM, first compound 0.1 µM
[17] = second compound 0.316 µM, first compound 0.316 µM
[18] = second compound 0.316 µM, first compound 1 µM
[19] = second compound 1 µM, first compound 0.0316 µM
[20] = second compound 1 µM, first compound 0.1 µM
[21] = second compound 1 µM, first compound 0.316 µM
[22] = second compound 1 µM, first compound 1 µM
[23] = second compound 3.16 µM, first compound 0.0316 µM
[24] = second compound 3.16 µM, first compound 0.1 µM
[25] = second compound 3.16 µM, first compound 0.316 µM
[26] = second compound 3.16 µM, first compound 1 µM
[27] = second compound 10 µM, first compound 0.0316 µM
[28] = second compound 10 µM, first compound 0.1 µM
[29] = second compound 10 µM, first compound 0.316 µM
[30] = second compound 10 µM, first compound 1 µM
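Also: spheroids exposed to the agents for seven days.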
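For viability, T/C in this document: 100% = DMSO vehicle control viability.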

SMILES: CCc1c2c(nc3ccc(O)cc13)-c1cc3c(c(=O)n1C2)COC(=O)[C@]3(O)CC + CN1CCN(c2cc(C(=O)Nc3cc4cc(-c5cnn(C)c5)ccc4cn3)ccn2)CC1
- pIC50 [1]: > 8.50
- pIC50 [2]: > 8.50
- pIC50 [3]: > 8.50
- pIC50 [4]: > 8.50
- pIC50 [5]: > 8.50
- pIC50 [6]: > 8.50
- viability, T/C (second compound 0.0316 µM, first compound 0.00316 µM): 42.5%
- viability, T/C (second compound 0.0316 µM, first compound 0.01 µM): 14.9%
- viability, T/C [7]: 15%
- viability, T/C [8]: 16.9%
- viability, T/C [9]: 17.2%
- viability, T/C [10]: 4.31%
- viability, T/C (second compound 0.1 µM, first compound 0.00316 µM): 24.5%
- viability, T/C (second compound 0.1 µM, first compound 0.01 µM): 15.2%
- viability, T/C [11]: 12.1%
- viability, T/C [12]: 16.4%
- viability, T/C [13]: 13.9%
- viability, T/C [14]: 2.11%
- viability, T/C (second compound 0.316 µM, first compound 0.00316 µM): 12.3%
- viability, T/C (second compound 0.316 µM, first compound 0.01 µM): 12.3%
- viability, T/C [15]: 14.7%
- viability, T/C [16]: 5.42%
- viability, T/C [17]: 1.97%
- viability, T/C [18]: 1.05%
- viability, T/C (second compound 1 µM, first compound 0.00316 µM): 0.13%
- viability, T/C (second compound 1 µM, first compound 0.01 µM): 0.25%
- viability, T/C [19]: 0.33%
- viability, T/C [20]: 2.85%
- viability, T/C [21]: 2.44%
- viability, T/C [22]: 0.97%
- viability, T/C (second compound 3.16 µM, first compound 0.00316 µM): 0.1%
- viability, T/C (second compound 3.16 µM, first compound 0.01 µM): 2.44%
- viability, T/C [23]: 1.86%
- viability, T/C [24]: 0.73%
- viability, T/C [25]: 1.39%
- viability, T/C [26]: 0.88%
- viability, T/C (second compound 10 µM, first compound 0.00316 µM): 0.64%
- viability, T/C (second compound 10 µM, first compound 0.01 µM): 3.44%
- viability, T/C [27]: 2.3%
- viability, T/C [28]: 1.35%
- viability, T/C [29]: 2.63%
- viability, T/C [30]: 2.01%

SMILES: O=C(c1cc(Cc2n[nH]c(=O)c3ccccc23)ccc1F)N1CCN(C(=O)C2CC2)CC1
- viability, T/C (compound 0.0316 µM): 92.3% and 97.7%
- viability, T/C (compound 0.1 µM): 72.3% and 78.8%
- viability, T/C (compound 0.316 µM): 72% and 85.3%
- viability, T/C (compound 1 µM): 83.4% and 78.3%
- viability, T/C (compound 3.16 µM): 72.3% and 90.1%
- viability, T/C (compound 10 µM): 56.2% and 57.6%
- pIC50 (curve of compound): < 5.00

SMILES: Cn1ncnc1[C@H]1c2n[nH]c(=O)c3cc(F)cc(c23)N[C@@H]1c1ccc(F)cc1
- viability, T/C (compound 0.000316 µM): 87.6% and 89%
- viability, T/C (compound 0.001 µM): 88.1% and 94.1%
- viability, T/C (compound 0.00316 µM): 91.8% and 78.8%
- viability, T/C (compound 0.01 µM): 80.4% and 83%
- viability, T/C (compound 0.0316 µM): 60.7% and 65.9%
- viability, T/C (compound 0.1 µM): 57% and 63.1%
- pIC50 (curve of compound): < 7.00

SMILES: O=c1[nH]cc(F)c(=O)[nH]1 + CN1CCN(c2cc(C(=O)Nc3cc4cc(-c5cnn(C)c5)ccc4cn3)ccn2)CC1
- pIC50 [1]: 5.12
- pIC50 [2]: 5.33
- pIC50 [3]: > 7.50
- pIC50 [4]: > 7.50
- pIC50 [5]: > 7.50
- pIC50 [6]: > 7.50
- viability, T/C [7]: 106%
- viability, T/C [8]: 104%
- viability, T/C [9]: 96.2%
- viability, T/C [10]: 113%
- viability, T/C (second compound 0.0316 µM, first compound 3.16 µM): 74.2%
- viability, T/C (second compound 0.0316 µM, first compound 10 µM): 42%
- viability, T/C [11]: 99.3%
- viability, T/C [12]: 77.6%
- viability, T/C [13]: 83.7%
- viability, T/C [14]: 84.6%
- viability, T/C (second compound 0.1 µM, first compound 3.16 µM): 57.8%
- viability, T/C (second compound 0.1 µM, first compound 10 µM): 34.9%
- viability, T/C [15]: 17.3%
- viability, T/C [16]: 21.2%
- viability, T/C [17]: 21.1%
- viability, T/C [18]: 20.9%
- viability, T/C (second compound 0.316 µM, first compound 3.16 µM): 20.4%
- viability, T/C (second compound 0.316 µM, first compound 10 µM): 16.1%
- viability, T/C [19]: 0.17%
- viability, T/C [20]: 1.7%
- viability, T/C [21]: 0.17%
- viability, T/C [22]: 1.14%
- viability, T/C (second compound 1 µM, first compound 3.16 µM): 3.07%
- viability, T/C (second compound 1 µM, first compound 10 µM): 0.39%
- viability, T/C [23]: 0.09%
- viability, T/C [24]: 3.26%
- viability, T/C [25]: 2.64%
- viability, T/C [26]: 0.08%
- viability, T/C (second compound 3.16 µM, first compound 3.16 µM): 3.66%
- viability, T/C (second compound 3.16 µM, first compound 10 µM): 5.79%
- viability, T/C [27]: 0.09%
- viability, T/C [28]: 1.51%
- viability, T/C [29]: 0.76%
- viability, T/C [30]: 2.73%
- viability, T/C (second compound 10 µM, first compound 3.16 µM): 1.68%
- viability, T/C (second compound 10 µM, first compound 10 µM): 3.54%
